Results from patent US12458629B2, “Method for treating nonsense mutation mediated duchenne muscular dystrophy in pediatric patients” (PTC THERAPEUTICS, INC., priority 2019, dated 2025).
Where “and” joins values, the source holds several entries; their conditions need not be identical. Equal values may be shown once. Read-outs that look alike come from different tables or passages of the source.

Tests used:
[1] = test system: pediatric patients having nmDMD; assay: North Star Ambulatory Assessment (NSAA), 16-, 8- and 3-item, NCT02819557; format: in vivo, human
Excerpt: Certain assessments on the NSAA 16-point scale were revised to reflect developmental stages for a pediatric patient population, e.g., “Lifts Head” was removed from the total, Items 3 and 8 on the NSAA scales were further revised to detect changes in the pediatric younger age group.^18,22 The same analysis was used for all subjects (n=14).
However, all patients were included in the baseline and week 52 assessments.

[2] = Ataluren plasma pharmacokinetics, NCT02819557 phase 2 open-label trial (LC-MS/MS); format: in vivo, human; conditions: for Cmax (0-6 hr) / concentration at 6 h / AUC(0-t) / Tmax: oral 10, 10, 20 mg/kg TID; for concentration at 6 h / AUC(0-t) / Tmax: male, human, plasma; for concentration at 6 h: oral, read-out: Ctrough-6 hr; for AUC(0-t) / Tmax: po, 20 mg/kg; for Tmax: read-out: tmax (0-6 hr)
Description: A total dose of 40 mg/kg/day study drug was administered as three divided doses per day. The first dose administered was: 10 mg/kg in the morning, the second dose administered was 10 mg/kg at midday, and the third dose administered was 20 mg/kg in the evening.
Evaluations included blood sampling for gene sequencing, blood sampling for ataluren PK, vital signs, height, weight, physical exam, hematology urinalysis, 12-lead ECG, palatability questionnaire, adverse events (AEs), concomitant medications and non-DMD-related Aes. For single-dose and steady-state plasma concentrations, blood samples were collected pre-dose and at 1, 2, 4, 6, 8, and 10 hours post-dose on Days 1 (Visit 2) and 28 (Visit 3). Ataluren plasma concentrations were determined using a validated liquid chromatography with tandem mass spectrometry (LC-MS/MS) method, with a lower limit of quantification (LOQ) of 0.500 μg/mL. Efficacy evaluations included TFTs and the NSAA, adapted as described below.
Observed values of plasma concentrations for ataluren were summarized at each visit and time point by dose level. Descriptive statistics (n, mean, standard deviation [SD], coefficient of variation [CV %], median, minimum, and maximum) and geometric means and their CV % were calculated. PK parameters (AUC0-6, AUC0-10, Cmax (0-6 hr) Ctrough (0-6 hr), t max (0-6 hr), accumulation ratio (AR) (AUC), AR (Cmax)) were derived using actual sampling and dosing times. Concentrations below the LOQ were set to zero for the calculation of non-compartmental analysis (NCA) parameters.

boys with nmDMD = conditions: boys about seven to about 16 years of age with nmDMD, Phase 3 NCT01826487; cited from earlier work
[3] = Effective plasma concentration range for maximum benefit by 6 minute walking distance (6 MWD); parameters: species or system human; conditions: in vivo
Description: As used herein, the term “therapeutically effective amount” refers to that amount of ataluren administered to a patient based on patient weight that is sufficient to attain an average plasma concentration in a range of at least about 1 μg/mL to about 20 μg/mL during a 24 hour time period.

[4] = test system: pediatric patients having nmDMD; assay: Timed function tests (TFTs), NCT02819557; format: in vivo, human; conditions: for decrease in mean time taken to descend 4 stairs (SD): 40 mg/kg/day
Description: For timed function tests (TFTs), results summarizing the baseline values (Study Day 1), post-baseline values, and the change from baseline values were analyzed separately for each of the 4 tests, including time taken to i). walk/run 10 meters, ii). Climb 4 stairs, iii). Descend 4 stairs, and iv). Stand from a supine position. The 10 m walk/run test was assessed once. If the time taken to perform a TFT exceeded 30 seconds or if a subject could not perform a TFT due to disease progression, a value of 30 seconds was set for the summary analysis. The time values in seconds were summarized using descriptive statistics: n, mean, SD, median, range, and 95% confidence intervals. Observed values, and changes from baseline in TFTs were summarized accordingly for the evaluable population.

[5] = Day 1 and Day 28, most subjects
[6] = Week 0 - Day 1, arithmetic mean, n=14
[7] = Week 4 - Day 28, arithmetic mean, n=14
[8] = Week 4 - Day 28 vs Day 1, arithmetic mean, n=14

## O=C(O)c1cccc(-c2noc(-c3ccccc3F)n2)c1 [ataluren, 3-[5-(2-fluoro-phenyl)-[1,2,4]oxadiazol-3-yl]-benzoic acid]
[1]; Week 28, N=13
  3-item NSAA score, mean (SD): 5.8 (±0.38)
  8-item NSAA score, mean (SD): 12.1 (+3.12)
  16-item NSAA total score, mean (SD): 19.8 (±6.17) and 19.8 (6.17)
  16-item NSAA total score, percent improvement over baseline: 24.88% and 24.88 (27.203) %
[1]; Week 28 vs baseline 5.4
  3-item NSAA score, percent improvement over baseline: 10.26%
[1]; Week 28 vs baseline 10.5
  8-item NSAA score, percent improvement over baseline: 15.14%
[1]; Week 28 vs baseline 16.2, N=13
  16-item NSAA total score, improvement over baseline: 3.5 (±3.43) points
[1]; Week 52, N=14
  3-item NSAA score, mean (SD): 5.6 (+0.63)
  8-item NSAA score, mean (SD): 12.8 (+3.12)
  16-item NSAA total score, mean (SD): 21.5 (±6.48) and 21.5 (6.48)
  16-item NSAA total score, percent improvement over baseline: 36.63% and 36.63 (29.956) %
[1]; Week 52 vs baseline 5.4
  3-item NSAA score, percent improvement over baseline: 6.31%
[1]; Week 52 vs baseline 10.5
  8-item NSAA score, percent improvement over baseline: 23.31%
[1]; Week 52 vs baseline 16.0, N=14
  16-item NSAA total score, improvement over baseline: 5.5 (±4.43) points
[2]; [5]
  time of peak concentration post-morning dose (first peak): approximately 2 hours
  time of peak concentration post-morning dose (second peak, 2 hours post midday dose): ~8 h
[2]; Day 28 vs Day 1
  drug accumulation across doses: no apparent accumulation
[2]; [6]
  Cmax (0-6 hr): 15950 ng/mL
  concentration at 6 h: 9120 ng/mL
  Tmax: 3.84 h
[2]; [7]
  Cmax (0-6 hr): 12540 ng/mL
  concentration at 6 h: 5430 ng/mL
  Tmax: 2.72 h
[2]; [8]
  AR AUC0-6 (accumulation ratio): 0.99
  AR Cmax (accumulation ratio): 1.02
[2]; Week 0 - Day 1, arithmetic mean, n=14, boys ≥2 to <5 years with nmDMD, read-out: AUC0-6
  AUC(0-t): 53000 ng·h/mL
[2]; Week 0 - Day 1, arithmetic mean, n=14, read-out: AUC0-10
  AUC(0-t): 102000 ng·h/mL
[2]; Week 4 - Day 28, arithmetic mean, n=14, read-out: AUC0-6
  AUC(0-t): 43600 ng·h/mL
[2]; Week 4 - Day 28, arithmetic mean, n=14, read-out: AUC0-10
  AUC(0-t): 82100 ng·h/mL
[2]; ≥2 to <5 yrs vs ≥5 yrs nmDMD populations
  plasma levels and safety in the younger population relative to older children: similar
Boys with nmDMD
  tolerability: generally well tolerated
[3]
  time post morning dose at which the effective plasma concentration range is typically found: ≤ 2 h
[4]; all four TFTs over the 52-week study period
  Timed Function Test assessments, change from baseline: overall improvements from baseline
[4]; week 28, 13 patients
  mean reduction from baseline, 10 m walk/run time: 0.8 (±1.54) seconds
[4]; week 28 vs baseline
  mean percent improvement (SD), time to climb 4 stairs: 9.10 (±29.63) percent and 9.10 (29.630) percent
  mean percent improvement (SD), time to descend 4 stairs: 7.17 (±26.43) percent and 7.17 (26.433) percent
  mean percent improvement, 10 m walk/run: 8.35% and 8.35 (22.778) %
[4]; week 28 vs baseline, N=13
  reduction in mean time to climb 4 stairs: 1.8 (±4.85) seconds
[4]; week 28 vs mean baseline of 7.1 seconds, 12 patients
  decrease in mean time taken to descend 4 stairs (SD): 0.6 (±1.93) seconds
[4]; week 52, 14 patients
  mean reduction from baseline, 10 m walk/run time: 1.1 (±1.35) seconds
[4]; week 52 vs baseline
  mean percent improvement (SD), time to climb 4 stairs: 23.36 (±26.25) percent and 23.36 (26.249) percent
  mean percent improvement (SD), time to descend 4 stairs: 24.22 (±28.32) percent and 24.22 (28.322) percent
  mean percent improvement, 10 m walk/run: 14.54% and 14.54 (14.862) %
[4]; week 52 vs baseline, N=14
  reduction in mean time to climb 4 stairs: 2.6 (±5.0) seconds
[4]; week 52 vs mean baseline of 7.5 seconds, 13 patients
  decrease in mean time taken to descend 4 stairs (SD): 2.2 (±2.58) seconds
[4]; weeks 28 (N=13) and 52 (N=14)
  mean improvement from baseline in stand from supine position assessment, week 28 compared with week 52: similar
